The source of these data is ChEMBL document CHEMBL3585344, “Thiazole-based aminopyrimidines and N-phenylpyrazolines as potent antimicrobial agents: synthesis and biological evaluation” (2014).

≈ marks a conversion by molar mass, not a printed value.

The MIC is the lowest concentration that inhibits growth of the organism.

For test [1], the system named is Staphylococcus aureus. In words: Antibacterial activity against Staphylococcus aureus ATCC 6538 after 24 hrs by microdilution method. The conditions noted are these: ATCC 6538, 24 h. Type of test: functional. For orientation: Broth dilution looks for growth in wells or tubes with falling amounts of substance.
The subject of test [2] is Bacillus cereus. In words: Antibacterial activity against Bacillus cereus clinical isolate after 24 hrs by microdilution method. Type of test: functional.
For test [3], the system named is Micrococcus flavus. In words: Antibacterial activity against Micrococcus flavus ATCC 10240 after 24 hrs by microdilution method. The format is functional. The note with it: ATCC 10240, 24 h.
Test [4] concerns Listeria monocytogenes. In words: Antibacterial activity against Listeria monocytogenes NCTC 7973 after 24 hrs by microdilution method. Type of test: functional. The note with it: NCTC 7973, 24 h.
Test [5] relates to Staphylococcus aureus. In words: Bactericidal activity against Staphylococcus aureus ATCC 6538 after 72 hrs by microdilution method. Type of test: functional.
Test [6] concerns Bacillus cereus. In words: Bactericidal activity against Bacillus cereus clinical isolate after 72 hrs by microdilution method. Type of test: functional.
Test [7] has as its system Micrococcus flavus. In words: Bactericidal activity against Micrococcus flavus ATCC 10240 after 72 hrs by microdilution method. The format is functional.
Test [8] has as its system Listeria monocytogenes. In words: Bactericidal activity against Listeria monocytogenes NCTC 7973 after 72 hrs by microdilution method. The format is functional.
In test [9] the test system is Pseudomonas aeruginosa. In words: Antibacterial activity against Pseudomonas aeruginosa ATCC 27853 after 24 hrs by microdilution method. Type of test: functional. The conditions noted are these: ATCC 27853, 24 h.
Test [10] has as its system Salmonella typhimurium. In words: Antibacterial activity against Salmonella typhimurium ATCC 13311 after 24 hrs by microdilution method. The format is functional, Salmonella enterica subsp. enterica serovar Typhimurium. The conditions noted are these: Salmonella enterica, ATCC 13311, 24 h.
For test [11], the system named is Escherichia coli. In words: Antibacterial activity against Escherichia coli ATCC 35210 after 24 hrs by microdilution method. The conditions noted are these: ATCC 35210, 24 h. The format is functional.
Test [12] concerns Enterococcus faecalis. In words: Antibacterial activity against Enterococcus faecalis ATCC 7080 isolated from human after 24 hrs by microdilution method. Type of test: functional. The note with it: ATCC 7080, 24 h.
Test [13] deals with Pseudomonas aeruginosa. In words: Bactericidal activity against Pseudomonas aeruginosa ATCC 27853 after 72 hrs by microdilution method. The format is functional.
For test [14], the system named is Salmonella typhimurium. In words: Bactericidal activity against Salmonella typhimurium ATCC 13311 after 72 hrs by microdilution method. Type of test: functional, Salmonella enterica subsp. enterica serovar Typhimurium.
The test system of test [15] is Escherichia coli. In words: Bactericidal activity against Escherichia coli ATCC 35210 after 72 hrs by microdilution method. The format is functional.
The test system of test [16] is Enterococcus faecalis. In words: Bactericidal activity against Enterococcus faecalis ATCC 7080 isolated from human after 72 hrs by microdilution method. Type of test: functional.
The subject of test [17] is Aspergillus ochraceus. In words: Antifungal activity against Aspergillus ochraceus ATCC 12066 after 72 hrs by microdilution method. Type of test: functional. The note with it: ATCC 12066, 72 h.
Test [18] deals with Aspergillus versicolor. In words: Antifungal activity against Aspergillus versicolor ATCC 11730 after 72 hrs by microdilution method. The format is functional. The note with it: ATCC 11730, 72 h.
Test [19] concerns Aspergillus flavus. In words: Antifungal activity against Aspergillus flavus ATCC 9643 after 72 hrs by microdilution method. The note with it: ATCC 9643, 72 h. Type of test: functional.
Test [20] concerns Aspergillus niger. In words: Antifungal activity against Aspergillus niger ATCC 6275 after 72 hrs by microdilution method. The format is functional. The note with it: ATCC 6275, 72 h.
Test [21] deals with Aspergillus fumigatus. In words: Antifungal activity against Aspergillus fumigatus isolated from human after 72 hrs by microdilution method. The format is functional.
Test [22] concerns Aspergillus ochraceus. In words: Fungicidal activity against Aspergillus ochraceus ATCC 12066 after 72 hrs by microdilution method. Type of test: functional.
Test [23] concerns Aspergillus versicolor. In words: Fungicidal activity against Aspergillus versicolor ATCC 11730 after 72 hrs by microdilution method. Type of test: functional.
For test [24], the system named is Aspergillus flavus. In words: Fungicidal activity against Aspergillus flavus ATCC 9643 after 72 hrs by microdilution method. Type of test: functional.
The test system of test [25] is Aspergillus niger. In words: Fungicidal activity against Aspergillus niger ATCC 6275 after 72 hrs by microdilution method. The format is functional.
Test [26] relates to Aspergillus fumigatus. In words: Fungicidal activity against Aspergillus fumigatus isolated from human after 72 hrs by microdilution method. The format is functional.
For test [27], the system named is Trichoderma viride. In words: Antifungal activity against Trichoderma viride IAM 5061 after 72 hrs by microdilution method. Type of test: functional. The note with it: IAM 5061, 72 h.
Test [28] has as its system Penicillium ochrochloron. In words: Antifungal activity against Penicillium ochrochloron ATCC 9112 after 72 hrs by microdilution method. Type of test: functional. The conditions noted are these: ATCC 9112, 72 h.
Test [29] relates to Talaromyces funiculosus. In words: Antifungal activity against Penicillium funiculosum ATCC 36839 after 72 hrs by microdilution method. The conditions noted are these: ATCC 36839, 72 h. The format is functional.
The test system of test [30] is Trichoderma viride. In words: Fungicidal activity against Trichoderma viride IAM 5061 after 72 hrs by microdilution method. The format is functional.
For test [31], the system named is Penicillium ochrochloron. In words: Fungicidal activity against Penicillium ochrochloron ATCC 9112 after 72 hrs by microdilution method. The format is functional.
In test [32] the test system is Talaromyces funiculosus. In words: Fungicidal activity against Penicillium funiculosum ATCC 36839 after 72 hrs by microdilution method. Type of test: functional.
For test [33], the system named is Candida albicans. In words: Antifungal activity against Candida albicans ATCC 10231 isolated from human after 72 hrs by microdilution method. Type of test: functional. The note with it: ATCC 10231, 72 h.
Test [34] has as its system Candida albicans. In words: Fungicidal activity against Candida albicans ATCC 10231 isolated from human after 72 hrs by microdilution method. The format is functional.

As for `Cc1nc(-c2ccccc2)sc1-c1cc(-c2ccccc2)nc(N)n1`, the MIC was 14.5 µM (≈ 4.99 µg/mL) with Staphylococcus aureus [1]; 58 µM (≈ 20 µg/mL) in the test with Bacillus cereus [2]; 58 µM (≈ 20 µg/mL) against Micrococcus flavus [3]; 14.5 µM (≈ 4.99 µg/mL) in the test on Listeria monocytogenes [4]; 290 µM (≈ 99.9 µg/mL) with Pseudomonas aeruginosa [9]; 290 µM (≈ 99.9 µg/mL) against Salmonella typhimurium [10]. The MIC came out at 348 µM (≈ 120 µg/mL) in the test with Escherichia coli [11]; 290 µM (≈ 99.9 µg/mL) in the test on Enterococcus faecalis [12]; 14.5 µM (≈ 4.99 µg/mL) against Aspergillus ochraceus [17]; 14.5 µM (≈ 4.99 µg/mL) with Aspergillus versicolor [18]; 58 µM (≈ 20 µg/mL) against Aspergillus flavus [19]; 58 µM (≈ 20 µg/mL) in the test on Aspergillus niger [20]. Also, the MIC against Aspergillus fumigatus [21] was 58 µM (≈ 20 µg/mL); in the test with Trichoderma viride [27], 14.5 µM (≈ 4.99 µg/mL); against Penicillium ochrochloron [28], 348 µM (≈ 120 µg/mL); in the test on Talaromyces funiculosus [29], 348 µM (≈ 120 µg/mL). Besides, the MBC99.5 in the test on Staphylococcus aureus [5] is given as 5.8 ×10⁻² umol/ml; in the test on Bacillus cereus [6], 40.6 ×10⁻² umol/ml; against Micrococcus flavus [7], 29 ×10⁻² umol/ml; in the test on Listeria monocytogenes [8], 36.25 ×10⁻² umol/ml; against Pseudomonas aeruginosa [13], 40.6 ×10⁻² umol/ml; against Salmonella typhimurium [14] it was 34.8 ×10⁻² umol/ml. Besides, the MBC99.5 turned out to be 40.6 ×10⁻² umol/ml in the test on Escherichia coli [15] and 34.8 ×10⁻² umol/ml in the test with Enterococcus faecalis [16]. Moreover, the MFC99.5 in the test with Aspergillus ochraceus [22] was found to be 5.8 ×10⁻² umol/ml; with Aspergillus versicolor [23], 9 ×10⁻² umol/ml; against Aspergillus flavus [24], 29 ×10⁻² umol/ml; with Aspergillus niger [25], 40.6 ×10⁻² umol/ml; with Aspergillus fumigatus [26], 34.8 ×10⁻² umol/ml; in the test with Trichoderma viride [30], 29 ×10⁻² umol/ml. Further, the MFC99.5 was 40.6 ×10⁻² umol/ml against Penicillium ochrochloron [31] and 34.8 ×10⁻² umol/ml against Talaromyces funiculosus [32].

Take `CC(=O)N1CCN(c2ccc(OCC3COC(Cn4ccnc4)(c4ccc(Cl)cc4Cl)O3)cc2)CC1` (stereo not drawn) [KETOCONAZOLE]: the MIC in the test with Aspergillus ochraceus [17] was 380 µM (≈ 202 µg/mL); with Aspergillus versicolor [18], 2850 µM (≈ 1510 µg/mL); in the test with Aspergillus flavus [19], 2850 µM (≈ 1510 µg/mL); in the test with Aspergillus niger [20], 380 µM (≈ 202 µg/mL); against Aspergillus fumigatus [21] it was 380 µM (≈ 202 µg/mL); against Trichoderma viride [27], 4750 µM (≈ 2520 µg/mL). In addition, the MIC in the test on Penicillium ochrochloron [28] was determined as 3800 µM (≈ 2020 µg/mL); against Talaromyces funiculosus [29] it was 380 µM (≈ 202 µg/mL); in the test with Candida albicans [33], 376 µM (≈ 200 µg/mL). Also, the MFC99.5 is 95 ×10⁻² umol/ml with Aspergillus ochraceus [22]; 380 ×10⁻² umol/ml in the test with Aspergillus versicolor [23]; 380 ×10⁻² umol/ml in the test on Aspergillus flavus [24]; 95 ×10⁻² umol/ml with Aspergillus niger [25]; 95 ×10⁻² umol/ml against Aspergillus fumigatus [26]; 570 ×10⁻² umol/ml against Trichoderma viride [30]. Moreover, the MFC99.5 against Penicillium ochrochloron [31] came out at 380 ×10⁻² umol/ml; against Talaromyces funiculosus [32] it was 95 ×10⁻² umol/ml; against Candida albicans [34] it was 94 ×10⁻² umol/ml.

Take `c1ccc(-c2ccc(C(c3ccccc3)n3ccnc3)cc2)cc1` (stereo not drawn) [BIFONAZOLE]: the MIC against Aspergillus ochraceus [17] is 480 µM (≈ 149 µg/mL); against Aspergillus versicolor [18], 480 µM (≈ 149 µg/mL); against Aspergillus flavus [19], 480 µM (≈ 149 µg/mL); against Aspergillus niger [20], 480 µM (≈ 149 µg/mL); in the test with Aspergillus fumigatus [21], 480 µM (≈ 149 µg/mL); in the test on Trichoderma viride [27], 640 µM (≈ 199 µg/mL). In addition, the minimum inhibitory concentration (MIC) was 480 µM (≈ 149 µg/mL) in the test with Penicillium ochrochloron [28], 640 µM (≈ 199 µg/mL) against Talaromyces funiculosus [29] and 322 µM (≈ 99.9 µg/mL) in the test with Candida albicans [33]. Also, the MFC99.5 amounted to 80 ×10⁻² umol/ml with Aspergillus ochraceus [22]; 64 ×10⁻² umol/ml in the test on Aspergillus versicolor [23]; 64 ×10⁻² umol/ml against Aspergillus flavus [24]; 64 ×10⁻² umol/ml with Aspergillus niger [25]; 64 ×10⁻² umol/ml in the test with Aspergillus fumigatus [26]; 80 ×10⁻² umol/ml with Trichoderma viride [30]. The values for the MFC99.5 with Penicillium ochrochloron [31], in the test on Talaromyces funiculosus [32] and in the test with Candida albicans [34] were 64 ×10⁻² umol/ml, 80 ×10⁻² umol/ml and 48.3 ×10⁻² umol/ml, respectively.
